Experimental data: patent US20140274984A1, “ACID ADDITION SALTS OF 5ALPHA-HYDROXY-6BETA-[2-(1H-IMIDAZOL-4-YL)ETHYLAMINO]CHOLESTAN-3BETA-OL” (INSERM (INSTITUT NATIONAL DE LA SANTÉ ET DE LA RECHERE …, priority 2011, published 2014)

Assay: Water solubility at room temperature (shake 5 hours, filtered supernatant, HPLC with calibration curve)
Assay type: physicochemical
Details: shaken 5 hours
Procedure: An adequate amount of each sample was taken. Water (50% v/v) was added to each sample, and the mixture was shaken at room temperature for 5 hours. The supernatant was filtered through a filter, and diluted with a mixed solution of water 0.1% TFA/acetonitrile as necessary to give a sample solution. The concentration (mg/ml) of the sample solution was measured by high performance liquid chromatography (HPLC) with a calibration curve method, and taken as the solubility in water at room temperature.
HPLC Analysis Conditions:
HPLC purifications and analyses were carried out using an LC200 series Perkin Elmer apparatus, and diode array UV detector, using an Ultrasep C18 RP 100 column from Bischoff Chromatography.

Compared with “5alpha-Hydroxy-6beta-[2-(1H-imidazol-4-yl)ethylamino]cholestan-3beta-ol, acetate [Example 14]”, “5alpha-Hydroxy-6beta-[2-(1H-imidazol-4-yl)ethylamino]cholestan-3beta-ol, mesylate [Example 13]” is 2.4-fold higher in “Solubility in water at room temperature” value: 4500 µg/mL for the first, 11000 µg/mL for the second.

In the case of “5alpha-Hydroxy-6beta-[2-(1H-imidazol-4-yl)ethylamino]cholestan-3beta-ol, pamoate [Example 7]”, the “Solubility in water at room temperature” value is reported as 1400 µg/mL.
